# Measured values published in patent US10538535B2, “Antitumoral compounds” (priority 2017, dated 2020).
# Read-outs that look alike come from different tables or passages of the source.
# Assays:
# H526 tumors = experiment: In vivo xenograft, human lung (SCLC) H526; details: iv weekly, 47-R 0.1 mg/Kg, Compound D 0.5 mg/Kg
# Description: (§7) Female athymic nu/nu mice (Harlan Laboratories Models, S. L. Barcelona, Spain or Envigo, Spain) were utilized for all experiments. Animal were housed in individually ventilated cages Sealsafe® Plus, Techniplast S.P.A.), up to ten per cage on a 12-hour light-dark cycle at 21-23° C. and 40-60% humidity. Mice were allowed free access to irradiated standard rodent diet (Tecklad 2914C) and sterilized water. Animals were acclimated for at least 5 days prior to tumor implantation with a tumor cell suspension.
# H526 cells were grown as a suspension and maintained by addition of fresh medium, as the cell density increases, every 2 to 3 days. Every week, culture was reestablished by centrifugation of the suspension with subsequent resuspension in fresh medium at a concentration of 1×10^5 cell/mL. Each animal was subcutaneously implanted (on the right flank using 26 G needle and a 1 cc syringe) at 4-6 weeks of age with 5×10^6 H526 cells suspended in 0.05 mL of a solution consisting of 50% Matrigel® (Corning Incorporated Life Sciences) and 50% medium without serum or antibiotics.
# (§8) Treatment tolerability was assessed by monitoring body weight evolution, clinical signs of systemic toxicity, as well as evidences of local damage in the injection site.
# (§9) Treatments producing >20% lethality and/or 20% net body weight loss were considered toxic.
# PSN1 cells = experiment: cells; details: Homo sapiens, PSN1, 72 h; for CC50: read-out: LC50; for IC (TGI): read-out: TGI
# Description: (§1) The aim of this assay is to evaluate the in vitro cytostatic (ability to delay or arrest tumor cell growth) or cytotoxic (ability to kill tumor cells) activity of the samples being tested.
# (§2) A colorimetric assay, using sulforhodamine B (SRB) reaction has been adapted to provide a quantitative measurement of cell growth and viability (following the technique described by Skehan et al. J. Natl. Cancer Inst. 1990, 82, 1107-1112). Another colorimetric assay based on 3-(4,5-Dimethylthiazol-2-yl)-2,5-diphenyltetrazolium bromide (MTT) reduction to a purple formazan has been also used to assess the antiproliferative activity (following the technique described by Mosmann et al. J. Immunol. Meth. 1983, 65, 55-63).
# (§3) These forms of assays employ 96-well cell culture microplates following the standards of the American National Standards Institute and the Society for Laboratory Automation and Screening (ANSI SLAS 1-2004 (R2012) Oct. 12, 2011. All the cell lines used in this study were obtained from the American Type Culture Collection (ATCC) and derive from different types of human cancer.
# (§4) A549, HT29, MDA-MB-231 and PSN1 cells were maintained in Dulbecco's Modified Eagle Medium (DMEM) while PC-3 and 22Rv1 cells were maintained in Roswell Park Memorial Institute Medium (RPMI). All cell lines were supplemented with 10% Fetal Bovine Serum (FBS), 2 mM L-glutamine, 100 U/mL penicillin, and 100 […] at 37° C., 5% CO2 and 98% humidity. For the experiments, cells were harvested from subconfluent cultures using trypsinization and resuspended in fresh medium before counting and plating.
# (§5) A549, HT29, MDA-MB-231 and PSN1 cells were seeded in 96 well microtiter plates, at 5000 cells per well in aliquots of 150 μL, and allowed to attach to the plate surface for 18 hours (overnight) in drug free medium. After that, one control (untreated) plate of each cell line was fixed (as described below) and used for time zero reference value. Culture plates were then treated with test compounds (50 μL aliquots of 4× stock solutions in complete culture medium plus 4% DMSO) using ten 2/5 serial dilutions (concentrations ranging from 10 to 0.003 μg/mL) and triplicate cultures (1% final concentration in DMSO). After 72 hours treatment, the antitumor effect was measured by using the SRB methodology: Briefly, cells were washed twice with PBS, fixed for 15 min in 1% glutaraldehyde solution at room temperature, rinsed twice in PBS, and stained in 0.4% SRB solution for 30 min at room temperature. Cells were then rinsed several times with 1% acetic acid solution and air-dried at room temperature.
# (§6) Effects on cell growth and survival were estimated by applying the NCI algorithm (Boyd M R and Paull K D. Drug Dev. Res. 1995, 34, 91-104). The values obtained in triplicate cultures were fitted by nonlinear regression to a four-parameters logistic curve by nonlinear regression analysis.
# HT29 cells = experiment: cells; details: Homo sapiens, HT-29, 72 h; for CC50: read-out: LC50; for IC (TGI): read-out: TGI
# Description: as §1, §2, §3, §4, §5, §6
# MDA-MB-231 cells = experiment: cells; details: Homo sapiens, MDA-MB-231, 72 h; for CC50: read-out: LC50; for IC (TGI): read-out: TGI
# Description: as §1, §2, §3, §4, §5, §6
# H82 tumors = experiment: In vivo xenograft, human lung (SCLC) H82; details: iv weekly, 47-R 0.1 mg/Kg, Compound D 0.5 mg/Kg
# Description: as §7
# H82 cells were grown as a suspension and maintained by addition of fresh medium, as the cell density increases, every 2 to 3 days. Every week, culture was reestablished by centrifugation of the suspension with subsequent resuspension in fresh medium at a concentration of 1×10^5 cell/ml. Animals were subcutaneously implanted (on the right flank using 26 G needle and a 1 cc syringe) at 4-6 weeks of age with 5×10^6 H82 cells, suspended in 0.05 mL of a solution consisting of 50% Matrigel® (Corning Incorporated Life Sciences) and 50% medium without serum or antibiotics.
# as §8
# In xenograft studies with other cell lines: • Tumor volume was calculated using the equation (a·b^2)/2, where a: length (longest diameter) and b: width (shortest diameter) were measured in mm by using digital caliper (Fowler Sylvac, S235PAT).
# as §9
# Tables and figures summarize the data obtained from complete experimental groups, i.e. those groups keeping the initial number of animals, n=8-10.
# PC-3 tumors = details: 12-R 0.05 mg/kg
# Description: In this model, instead of male, female animals were used because PC-3 growth is not hormone dependant.
# A549 cells = experiment: cells; details: Homo sapiens, A549, 72 h; for CC50: read-out: LC50; for IC (TGI): read-out: TGI
# Description: as §1, §2, §3, §4, §5, §6
smiles,measurement,setting,value
COc1c(C)cc2c(c1O)[C@@H]1[C@@H]3[C@@H]4SC[C@]5(N[C@@H](CN)Cc6c5oc5ccccc65)C(=O)OC[C@@H](c5c6c(c(C)c(OC(C)=O)c54)OCO6)N3[C@@H](O)[C@H](C2)N1C [Compound 47-R],Median Tumor Volume,"H526 tumors; Table 56, Day 0",211.5 mm^3
same,Median Tumor Volume,"H526 tumors; Table 56, Day 2",367.9 mm^3
same,Median Tumor Volume,"H526 tumors; Table 56, Day 4",583.7 mm^3
same,Median Tumor Volume,"H526 tumors; Table 56, Day 7",941.7 mm^3
same,Median Tumor Volume,"H526 tumors; Table 56, Day 9",1305.2 mm^3
same,Median Tumor Volume,"H526 tumors; Table 56, Day 11",1484.7 mm^3
same,Median Tumor Volume,"H526 tumors; Table 56, Day 14",2025.0 mm^3
same,CC50,PSN1 cells,3.31 nM
same,CC50,HT29 cells,> 127 nM
same,CC50,MDA-MB-231 cells,2.55 nM
same,Median Tumor Volume,"H82 tumors; Table 57, Day 0",169.0 mm^3
same,Median Tumor Volume,"H82 tumors; Table 57, Day 2",371.6 mm^3
same,Median Tumor Volume,"H82 tumors; Table 57, Day 5",888.8 mm^3
same,Median Tumor Volume,"H82 tumors; Table 57, Day 7",1314.2 mm^3
same,Median Tumor Volume,"H82 tumors; Table 57, Day 9",1811.0 mm^3
same,Median Tumor Volume,"H82 tumors; Table 57, Day 12",2055.4 mm^3
COc1c(C)cc2c(c1O)[C@@H]1[C@@H]3[C@@H]4SC[C@]5(N[C@H](CN)Cc6c5[nH]c5ccccc65)C(=O)OC[C@@H](c5c6c(c(C)c(OC(C)=O)c54)OCO6)N3[C@@H](O)[C@H](C2)N1C [Compound 12-S],Median Tumor Volume,"PC-3 tumors; Day 0, iv Days 0, 7 and 14, 12-S […]",128.0 mm^3
same,Median Tumor Volume,"PC-3 tumors; Day 2, iv Days 0, 7 and 14, 12-S […]",141.5 mm^3
same,Median Tumor Volume,"PC-3 tumors; Day 4, iv Days 0, 7 and 14, 12-S […]",143.7 mm^3
same,Median Tumor Volume,"PC-3 tumors; Day 7, iv Days 0, 7 and 14, 12-S […]",183.9 mm^3
same,Median Tumor Volume,"PC-3 tumors; Day 11, iv Days 0, 7 and 14, 12-S […]",208.1 mm^3
same,Median Tumor Volume,"PC-3 tumors; Day 14, iv Days 0, 7 and 14, 12-S […]",270.7 mm^3
same,Median Tumor Volume,"PC-3 tumors; Day 16, iv Days 0, 7 and 14, 12-S […]",286.3 mm^3
same,Median Tumor Volume,"PC-3 tumors; Day 18, iv Days 0, 7 and 14, 12-S […]",336.1 mm^3
same,Median Tumor Volume,"PC-3 tumors; Day 21, iv Days 0, 7 and 14, 12-S […]",357.1 mm^3
same,Median Tumor Volume,"PC-3 tumors; Day 23, iv Days 0, 7 and 14, 12-S […]",400.8 mm^3
same,Median Tumor Volume,"PC-3 tumors; Day 25, iv Days 0, 7 and 14, 12-S […]",443.6 mm^3
same,Median Tumor Volume,"PC-3 tumors; Day 29, iv Days 0, 7 and 14, 12-S […]",523.4 mm^3
same,Median Tumor Volume,"PC-3 tumors; Day 32, iv Days 0, 7 and 14, 12-S […]",652.6 mm^3
same,Median Tumor Volume,"PC-3 tumors; Day 35, iv Days 0, 7 and 14, 12-S […]",689.7 mm^3
same,Median Tumor Volume,"PC-3 tumors; Day 37, iv Days 0, 7 and 14, 12-S […]",692.2 mm^3
same,Median Tumor Volume,"PC-3 tumors; Day 39, iv Days 0, 7 and 14, 12-S […]",726.9 mm^3
same,Median Tumor Volume,"PC-3 tumors; Day 42, iv Days 0, 7 and 14, 12-S […]",823.7 mm^3
same,Median Tumor Volume,"PC-3 tumors; Day 44, iv Days 0, 7 and 14, 12-S […]",864.2 mm^3
same,Median Tumor Volume,"PC-3 tumors; Day 46, iv Days 0, 7 and 14, 12-S […]",1182.8 mm^3
same,Median Tumor Volume,"PC-3 tumors; Day 49, iv Days 0, 7 and 14, 12-S […]",1219.2 mm^3
same,Median Tumor Volume,"PC-3 tumors; Day 51, iv Days 0, 7 and 14, 12-S […]",1331.9 mm^3
same,Median Tumor Volume,"PC-3 tumors; Day 56, iv Days 0, 7 and 14, 12-S […]",1335.2 mm^3
same,CC50,A549 cells,> 128 nM
same,CC50,HT29 cells,> 128 nM
COc1c(C)cc2c(c1O)[C@@H]1[C@@H]3[C@@H]4SC[C@]5(N[C@@H](CO)Cc6c5[nH]c5ccccc65)C(=O)OC[C@@H](c5c6c(c(C)c(OC(C)=O)c54)OCO6)N3[C@@H](C#N)[C@H](C2)N1C [Compound 3-R],GI50,"PSN1 cells; PSN1, 72 hours treatment, SRB",0.39 nM
same,CC50,PSN1 cells,> 126 nM
same,IC (TGI),PSN1 cells,0.605 nM
same,CC50,A549 cells,> 126 nM
same,IC (TGI),A549 cells,0.579 nM
same,CC50,HT29 cells,> 126 nM
same,IC (TGI),HT29 cells,> 126 nM
same,CC50,MDA-MB-231 cells,1.25 nM
same,IC (TGI),MDA-MB-231 cells,0.504 nM
COc1c(C)cc2c(c1O)[C@@H]1[C@@H]3[C@@H]4SC[C@]5(N[C@H](C(=O)O)Cc6c5[nH]c5ccccc65)C(=O)OC[C@@H](c5c6c(c(C)c(OC(C)=O)c54)OCO6)N3[C@@H](O)[C@H](C2)N1C [Compound 15-S],GI50,PSN1 cells,238 nM
same,CC50,PSN1 cells,839 nM
same,IC (TGI),PSN1 cells,463 nM
same,GI50,A549 cells,> 1250 nM
same,CC50,A549 cells,> 1250 nM
same,IC (TGI),A549 cells,> 1250 nM
same,GI50,HT29 cells,300 nM
same,CC50,HT29 cells,914 nM
same,IC (TGI),HT29 cells,513 nM
same,GI50,MDA-MB-231 cells,163 nM
same,CC50,MDA-MB-231 cells,275 nM
same,IC (TGI),MDA-MB-231 cells,213 nM
